Measured values taken from article PMC4979471 (Cell Death Discovery, 2015).
Read-outs that look alike come from different tables or passages of the source.

Experiments:
Experiment in all cases: Kinase selectivity, P33-radiolabeled assay
Type in all cases: biochemical
Conditions in all cases: 10 μM ATP
ALK3/BMPR1A = biological target: T1, ALK3/BMPR1A (Homo sapiens, UniProt P36894)
T1 construct: purchased Reaction Biology Corp
Procedure, shortened: (§1)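 Reactions contained 10 μM ATP and 10 μM test compound, each run in duplicate. Kinase activity is expressed as a percentage of DMSO-treated controls.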

ALK6/BMPR1B = biological target: T2, ALK6/BMPR1B (Homo sapiens, UniProt O00238)
T2 construct: purchased Reaction Biology Corp
Procedure, shortened: as §1

BRSK2 = biological target: T3, BRSK2 (Homo sapiens, UniProt Q8IWQ3)
T3 construct: purchased Reaction Biology Corp
T3 sequence (Q8IWQ3 1-736): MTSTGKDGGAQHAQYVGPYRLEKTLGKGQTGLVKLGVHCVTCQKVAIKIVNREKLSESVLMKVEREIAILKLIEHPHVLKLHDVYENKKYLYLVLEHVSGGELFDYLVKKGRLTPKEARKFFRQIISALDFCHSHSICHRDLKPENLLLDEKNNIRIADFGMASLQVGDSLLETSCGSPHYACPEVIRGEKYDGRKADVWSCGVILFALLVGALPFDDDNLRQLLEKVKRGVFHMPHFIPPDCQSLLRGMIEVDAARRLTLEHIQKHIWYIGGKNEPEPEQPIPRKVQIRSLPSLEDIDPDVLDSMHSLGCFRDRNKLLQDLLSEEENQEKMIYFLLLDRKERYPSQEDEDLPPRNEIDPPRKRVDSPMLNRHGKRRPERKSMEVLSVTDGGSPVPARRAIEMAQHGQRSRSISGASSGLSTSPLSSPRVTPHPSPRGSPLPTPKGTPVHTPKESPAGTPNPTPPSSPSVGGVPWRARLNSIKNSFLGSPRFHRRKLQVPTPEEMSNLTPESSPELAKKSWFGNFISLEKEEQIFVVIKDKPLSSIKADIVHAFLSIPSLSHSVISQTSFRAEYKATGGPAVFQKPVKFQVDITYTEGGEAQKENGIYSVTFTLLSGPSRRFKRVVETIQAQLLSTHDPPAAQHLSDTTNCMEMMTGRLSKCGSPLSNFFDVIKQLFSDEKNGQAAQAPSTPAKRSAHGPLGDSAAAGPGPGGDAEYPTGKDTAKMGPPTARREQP
Procedure, shortened: as §1

CAMKK2 = biological target: T4, CAMKK2 (Homo sapiens, UniProt Q96RR4)
T4 construct: purchased Reaction Biology Corp
Procedure, shortened: as §1

CDK2/cyclin E = biological target: T5, CDK2/cyclin E (Homo sapiens, UniProt P24941)
T5 construct: purchased Reaction Biology Corp
Procedure, shortened: as §1

DYRK1/DYRK1A = biological target: T6, DYRK1/DYRK1A (Homo sapiens, UniProt Q13627)
T6 construct: purchased Reaction Biology Corp
Procedure, shortened: as §1

FGFR2 = biological target: T7, FGFR2 (Homo sapiens, UniProt P21802)
T7 construct: purchased Reaction Biology Corp
Procedure, shortened: as §1

HIPK1 = biological target: T8, HIPK1 (Homo sapiens, UniProt Q86Z02)
T8 construct: purchased Reaction Biology Corp
Procedure, shortened: as §1

P38d/MAPK13 = biological target: T9, P38d/MAPK13 (Homo sapiens, UniProt O15264)
T9 construct: purchased Reaction Biology Corp
T9 sequence (O15264 1-365): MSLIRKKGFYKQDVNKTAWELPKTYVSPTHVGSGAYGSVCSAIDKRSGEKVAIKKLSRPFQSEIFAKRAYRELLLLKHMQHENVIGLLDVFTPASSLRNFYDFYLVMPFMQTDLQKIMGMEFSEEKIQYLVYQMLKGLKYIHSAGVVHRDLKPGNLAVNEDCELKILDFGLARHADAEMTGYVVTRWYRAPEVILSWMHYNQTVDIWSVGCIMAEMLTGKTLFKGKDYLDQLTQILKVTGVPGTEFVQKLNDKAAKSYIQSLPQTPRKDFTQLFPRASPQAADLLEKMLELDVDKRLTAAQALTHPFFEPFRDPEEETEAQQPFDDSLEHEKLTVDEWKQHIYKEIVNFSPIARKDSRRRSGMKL
Procedure, shortened: as §1

PLK4/SAK = biological target: T10, PLK4/SAK (Homo sapiens, UniProt O00444)
T10 construct: purchased Reaction Biology Corp
T10 sequence (O00444 1-970): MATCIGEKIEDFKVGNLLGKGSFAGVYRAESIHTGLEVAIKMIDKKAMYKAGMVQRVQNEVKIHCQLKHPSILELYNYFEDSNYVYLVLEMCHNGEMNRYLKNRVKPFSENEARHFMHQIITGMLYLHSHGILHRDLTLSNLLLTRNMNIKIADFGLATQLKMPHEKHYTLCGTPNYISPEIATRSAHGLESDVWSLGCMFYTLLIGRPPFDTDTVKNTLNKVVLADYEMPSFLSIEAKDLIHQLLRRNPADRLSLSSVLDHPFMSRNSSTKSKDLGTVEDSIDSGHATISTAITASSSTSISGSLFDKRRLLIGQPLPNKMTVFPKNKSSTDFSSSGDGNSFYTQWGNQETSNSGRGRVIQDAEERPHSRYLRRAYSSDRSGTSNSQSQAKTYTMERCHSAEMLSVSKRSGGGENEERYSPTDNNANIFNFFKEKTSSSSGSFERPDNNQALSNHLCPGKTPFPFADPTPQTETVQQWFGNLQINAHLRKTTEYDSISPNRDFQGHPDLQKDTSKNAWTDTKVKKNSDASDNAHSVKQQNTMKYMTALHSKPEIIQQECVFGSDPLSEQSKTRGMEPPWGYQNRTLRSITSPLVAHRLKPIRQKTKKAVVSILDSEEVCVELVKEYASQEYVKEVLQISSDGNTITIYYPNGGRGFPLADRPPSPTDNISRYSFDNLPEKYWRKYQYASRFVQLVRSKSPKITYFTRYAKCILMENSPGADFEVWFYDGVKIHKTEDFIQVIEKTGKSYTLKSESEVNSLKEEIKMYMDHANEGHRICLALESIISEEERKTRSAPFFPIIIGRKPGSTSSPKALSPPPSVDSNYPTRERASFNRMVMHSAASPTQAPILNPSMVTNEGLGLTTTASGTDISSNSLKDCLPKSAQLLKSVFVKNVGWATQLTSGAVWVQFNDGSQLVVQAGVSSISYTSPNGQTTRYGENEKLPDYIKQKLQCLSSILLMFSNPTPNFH
Procedure, shortened: as §1

[1] = read-out: % Enzyme Activity (relative to DMSO controls) AVG
[2] = read-out: % Enzyme Activity (relative to DMSO controls) Data 1
[3] = read-out: % Enzyme Activity (relative to DMSO controls) Data 2

T7 sequence (P21802 22-821): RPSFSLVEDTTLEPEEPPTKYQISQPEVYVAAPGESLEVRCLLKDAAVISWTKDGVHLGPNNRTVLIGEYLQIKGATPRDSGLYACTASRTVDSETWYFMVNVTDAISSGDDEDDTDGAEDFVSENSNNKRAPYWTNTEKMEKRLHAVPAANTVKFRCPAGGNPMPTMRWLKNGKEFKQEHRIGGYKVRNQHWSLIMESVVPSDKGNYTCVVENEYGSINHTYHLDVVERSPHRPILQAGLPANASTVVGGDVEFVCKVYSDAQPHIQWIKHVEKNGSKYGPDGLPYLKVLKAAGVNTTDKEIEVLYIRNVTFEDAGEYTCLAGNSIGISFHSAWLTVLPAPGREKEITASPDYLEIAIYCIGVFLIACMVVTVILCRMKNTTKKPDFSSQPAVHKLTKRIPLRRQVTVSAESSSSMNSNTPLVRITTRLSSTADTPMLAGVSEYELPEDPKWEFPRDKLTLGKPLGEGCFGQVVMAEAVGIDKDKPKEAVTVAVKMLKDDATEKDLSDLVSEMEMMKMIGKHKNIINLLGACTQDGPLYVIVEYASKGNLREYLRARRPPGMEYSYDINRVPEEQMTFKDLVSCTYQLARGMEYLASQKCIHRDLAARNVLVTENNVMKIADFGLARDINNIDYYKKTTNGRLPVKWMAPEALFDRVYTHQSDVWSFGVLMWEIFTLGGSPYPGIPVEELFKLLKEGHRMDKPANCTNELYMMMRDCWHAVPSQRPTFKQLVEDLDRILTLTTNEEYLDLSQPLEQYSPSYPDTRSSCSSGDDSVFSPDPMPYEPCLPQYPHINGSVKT
T8 sequence (Q86Z02 whole entry): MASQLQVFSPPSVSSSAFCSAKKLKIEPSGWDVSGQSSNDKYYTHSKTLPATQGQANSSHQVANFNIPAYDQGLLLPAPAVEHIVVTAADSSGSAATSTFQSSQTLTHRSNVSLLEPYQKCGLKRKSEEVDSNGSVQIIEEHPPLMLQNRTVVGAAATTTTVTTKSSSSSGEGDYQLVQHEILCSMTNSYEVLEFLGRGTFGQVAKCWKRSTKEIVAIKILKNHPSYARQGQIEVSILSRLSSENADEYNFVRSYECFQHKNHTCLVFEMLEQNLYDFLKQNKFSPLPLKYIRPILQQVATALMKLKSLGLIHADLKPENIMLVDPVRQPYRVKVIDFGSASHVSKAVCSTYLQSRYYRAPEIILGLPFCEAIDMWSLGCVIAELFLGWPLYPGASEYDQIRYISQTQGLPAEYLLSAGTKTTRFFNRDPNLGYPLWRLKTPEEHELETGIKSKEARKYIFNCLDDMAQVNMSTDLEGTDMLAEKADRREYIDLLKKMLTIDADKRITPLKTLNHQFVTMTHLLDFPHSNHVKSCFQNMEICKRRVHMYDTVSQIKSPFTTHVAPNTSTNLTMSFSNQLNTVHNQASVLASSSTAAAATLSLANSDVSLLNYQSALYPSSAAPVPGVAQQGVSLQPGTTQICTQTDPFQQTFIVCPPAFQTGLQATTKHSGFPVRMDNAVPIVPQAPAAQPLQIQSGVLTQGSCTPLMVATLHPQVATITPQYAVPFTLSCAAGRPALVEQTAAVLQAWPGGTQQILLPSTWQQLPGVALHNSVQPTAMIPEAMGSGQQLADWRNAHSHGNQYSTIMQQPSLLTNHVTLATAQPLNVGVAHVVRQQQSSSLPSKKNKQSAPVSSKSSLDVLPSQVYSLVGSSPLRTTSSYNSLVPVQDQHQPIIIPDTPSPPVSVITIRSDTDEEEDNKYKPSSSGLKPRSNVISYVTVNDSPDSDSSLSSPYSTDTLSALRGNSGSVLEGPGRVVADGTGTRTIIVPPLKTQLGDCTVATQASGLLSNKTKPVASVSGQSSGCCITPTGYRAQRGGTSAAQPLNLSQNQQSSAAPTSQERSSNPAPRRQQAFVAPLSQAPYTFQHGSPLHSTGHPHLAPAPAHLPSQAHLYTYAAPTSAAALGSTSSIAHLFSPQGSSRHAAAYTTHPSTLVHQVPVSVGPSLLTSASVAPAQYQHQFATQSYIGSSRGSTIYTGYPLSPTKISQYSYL
T2 sequence (O00238 14-502): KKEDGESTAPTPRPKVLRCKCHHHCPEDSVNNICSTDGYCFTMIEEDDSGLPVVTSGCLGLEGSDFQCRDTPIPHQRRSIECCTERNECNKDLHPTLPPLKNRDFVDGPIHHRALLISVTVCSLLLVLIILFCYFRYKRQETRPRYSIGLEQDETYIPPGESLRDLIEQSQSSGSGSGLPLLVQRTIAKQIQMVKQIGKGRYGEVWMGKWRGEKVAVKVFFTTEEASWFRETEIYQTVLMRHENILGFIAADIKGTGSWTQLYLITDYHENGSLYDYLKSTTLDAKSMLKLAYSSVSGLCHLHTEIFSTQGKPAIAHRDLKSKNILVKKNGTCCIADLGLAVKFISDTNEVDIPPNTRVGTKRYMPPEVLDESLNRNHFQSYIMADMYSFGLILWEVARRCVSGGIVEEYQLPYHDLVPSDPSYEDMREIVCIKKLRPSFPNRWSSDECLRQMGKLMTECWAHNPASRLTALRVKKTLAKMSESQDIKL
T1 sequence (P36894 24-532): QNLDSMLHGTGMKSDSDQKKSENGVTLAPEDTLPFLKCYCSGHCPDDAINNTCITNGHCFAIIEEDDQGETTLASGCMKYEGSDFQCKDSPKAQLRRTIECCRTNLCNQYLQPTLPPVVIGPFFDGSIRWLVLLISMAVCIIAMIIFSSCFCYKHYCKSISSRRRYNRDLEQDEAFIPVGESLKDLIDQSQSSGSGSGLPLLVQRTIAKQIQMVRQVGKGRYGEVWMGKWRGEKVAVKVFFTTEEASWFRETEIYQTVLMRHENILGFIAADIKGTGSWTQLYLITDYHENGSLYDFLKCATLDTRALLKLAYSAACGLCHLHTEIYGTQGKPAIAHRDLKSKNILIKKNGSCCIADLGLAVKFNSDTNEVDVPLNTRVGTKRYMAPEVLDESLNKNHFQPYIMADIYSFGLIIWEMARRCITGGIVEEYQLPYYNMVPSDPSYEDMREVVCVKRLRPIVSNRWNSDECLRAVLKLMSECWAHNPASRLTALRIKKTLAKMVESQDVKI
T4 sequence (Q96RR4 whole entry): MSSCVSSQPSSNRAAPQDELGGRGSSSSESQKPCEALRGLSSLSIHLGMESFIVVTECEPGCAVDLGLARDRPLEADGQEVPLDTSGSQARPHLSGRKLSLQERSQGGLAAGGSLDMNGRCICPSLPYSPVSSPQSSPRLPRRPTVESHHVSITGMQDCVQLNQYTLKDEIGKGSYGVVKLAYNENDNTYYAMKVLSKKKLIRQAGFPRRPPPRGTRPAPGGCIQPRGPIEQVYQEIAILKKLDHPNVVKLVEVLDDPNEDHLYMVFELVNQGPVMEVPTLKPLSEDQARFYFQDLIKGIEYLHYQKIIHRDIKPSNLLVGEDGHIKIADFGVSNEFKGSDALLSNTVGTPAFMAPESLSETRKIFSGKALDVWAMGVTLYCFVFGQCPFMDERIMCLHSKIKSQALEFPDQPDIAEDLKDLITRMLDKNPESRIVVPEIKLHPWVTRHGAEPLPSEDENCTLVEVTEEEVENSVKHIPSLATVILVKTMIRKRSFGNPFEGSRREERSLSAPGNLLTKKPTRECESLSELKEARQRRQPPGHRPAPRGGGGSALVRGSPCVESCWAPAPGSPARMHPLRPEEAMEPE

Structure (SMILES): CC(C)(C)C(=O)N1N=CC[C@H]1c1ccccc1 [GSK′963]
- remaining activity at 10 µM (ALK3/BMPR1A; [1]): 101%
- remaining activity at 10 µM (ALK3/BMPR1A; [2]): 103%
- remaining activity at 10 µM (ALK3/BMPR1A; [3]): 99.8%
- remaining activity at 10 µM (ALK6/BMPR1B; [1]): 90.5%
- remaining activity at 10 µM (ALK6/BMPR1B; [2]): 91%
- remaining activity at 10 µM (ALK6/BMPR1B; [3]): 90%
- remaining activity at 10 µM (BRSK2; [1]): 104%
- remaining activity at 10 µM (BRSK2; [2]): 109%
- remaining activity at 10 µM (BRSK2; [3]): 98.7%
- remaining activity at 10 µM (CAMKK2; [1]): 83%
- remaining activity at 10 µM (CAMKK2; [2]): 86.1%
- remaining activity at 10 µM (CAMKK2; [3]): 80%
- remaining activity at 10 µM (CDK2/cyclin E; [1]): 95.2%
- remaining activity at 10 µM (CDK2/cyclin E; [2]): 95.7%
- remaining activity at 10 µM (CDK2/cyclin E; [3]): 94.7%
- remaining activity at 10 µM (DYRK1/DYRK1A; [1]): 103%
- remaining activity at 10 µM (DYRK1/DYRK1A; [2]): 103%
- remaining activity at 10 µM (DYRK1/DYRK1A; [3]): 103%
- remaining activity at 10 µM (FGFR2; [1]): 110%
- remaining activity at 10 µM (FGFR2; [2]): 108%
- remaining activity at 10 µM (FGFR2; [3]): 112%
- remaining activity at 10 µM (HIPK1; [1]): 94.3%
- remaining activity at 10 µM (HIPK1; [2]): 95.2%
- remaining activity at 10 µM (HIPK1; [3]): 93.3%
- remaining activity at 10 µM (P38d/MAPK13; [1]): 100%
- remaining activity at 10 µM (P38d/MAPK13; [2]): 99.8%
- remaining activity at 10 µM (P38d/MAPK13; [3]): 101%
- remaining activity at 10 µM (PLK4/SAK; [1]): 113%
- remaining activity at 10 µM (PLK4/SAK; [2]): 114%
- remaining activity at 10 µM (PLK4/SAK; [3]): 112%
